Columns and labels:
Rattus norvegicus [1] = species on record: Rattus norvegicus; assay: DrugMatrix - Regimen: Daily Repeat; format: toxicity, organism-based, Sprague-Dawley; design: regimen Daily Repeat, gender Male, age 6-8 weeks; details: in vivo, po, 1200 mg/kg, route oral GAVAGE, dose level High, vehicle .5 % CMC
Rattus norvegicus [2] = species on record: Rattus norvegicus; format: toxicity, organism-based, Sprague-Dawley; details: in vivo, po, 1200 mg/kg, 24 h, route oral GAVAGE, dose level High, time 1 day, vehicle .5 % CMC
Description: DrugMatrix - Regimen: Single

[3] = […], tissue Plasma, time 14 day

Nc1ccc(Cl)cc1[N+](=O)[O-] [4-CHLORO-2-NITROANILINE]
URIC ACID (Rattus norvegicus [1]; 120 h, tissue Plasma, time 5 day): 1.5 mg/dL
ABSOLUTE BASOPHIL (Rattus norvegicus [1]; […], tissue Blood, time 14 day): 0 CELLS/uL
ABSOLUTE EOSINOPHIL (Rattus norvegicus [1]; […], tissue Blood, time 14 day): 305.4 CELLS/uL
ABSOLUTE LYMPHOCYTE (Rattus norvegicus [1]; […], tissue Blood, time 14 day): 16745.4 CELLS/uL
ABSOLUTE MONOCYTE (Rattus norvegicus [1]; […], tissue Blood, time 14 day): 700 CELLS/uL
ABSOLUTE SEGMENTED NEUTROPHIL (Rattus norvegicus [1]; […], tissue Blood, time 14 day): 2009.2 CELLS/uL
BASOPHIL (Rattus norvegicus [1]; […], tissue Blood, time 14 day): 0%
EOSINOPHIL (Rattus norvegicus [1]; […], tissue Blood, time 14 day): 1.6%
ERYTHROCYTE COUNT (Rattus norvegicus [1]; […], tissue Blood, time 14 day): 6.12 x10E6/uL
HEMATOCRIT (Rattus norvegicus [1]; […], tissue Blood, time 14 day): 34.88%
HEMOGLOBIN (Rattus norvegicus [1]; […], tissue Blood, time 14 day): 12.64 G/DL
LEUKOCYTE COUNT (Rattus norvegicus [1]; […], tissue Blood, time 14 day): 19.76 x10E3/uL
LYMPHOCYTE (Rattus norvegicus [1]; […], tissue Blood, time 14 day): 84.4%
MEAN CORPUSCULAR HEMOGLOBIN (Rattus norvegicus [1]; […], tissue Blood, time 14 day): 20.64 pg
MEAN CORPUSCULAR HEMOGLOBIN CONCENTRATION (Rattus norvegicus [1]; […], tissue Blood, time 14 day): 36.24 G/DL
MEAN CORPUSCULAR VOLUME (Rattus norvegicus [1]; […], tissue Blood, time 14 day): 56.98 fL
MONOCYTE (Rattus norvegicus [1]; […], tissue Blood, time 14 day): 3.4%
NEUTROPHIL (Rattus norvegicus [1]; […], tissue Blood, time 14 day): 10.6%
NUCLEATED RED BLOOD CELLS (Rattus norvegicus [1]; […], tissue Blood, time 14 day): 0 /100WBC
PLATELET COUNT (Rattus norvegicus [1]; […], tissue Blood, time 14 day): 1103.4 x10E3/uL
ALANINE AMINOTRANSFERASE (Rattus norvegicus [1]; [3]): 58.8 u/L
ALBUMIN (Rattus norvegicus [1]; [3]): 4.18 G/DL
ALKALINE PHOSPHATASE (Rattus norvegicus [1]; [3]): 347.4 u/L
ASPARTATE AMINOTRANSFERASE (Rattus norvegicus [1]; [3]): 113.2 u/L
BLOOD UREA NITROGEN (Rattus norvegicus [1]; [3]): 20 mg/dL
CARBON DIOXIDE (Rattus norvegicus [1]; [3]): 28 mmol/L
CHLORIDE (Rattus norvegicus [1]; [3]): 100.8 MEQ/L
CHOLESTEROL (Rattus norvegicus [1]; [3]): 80.8 mg/dL
CREATININE (Rattus norvegicus [1]; [3]): 0.27 mg/dL
GLUCOSE (Rattus norvegicus [1]; [3]): 164.4 mg/dL
LACTATE DEHYDROGENASE (Rattus norvegicus [1]; [3]): 192 u/L
LIPASE (Rattus norvegicus [1]; [3]): 10.8 u/L
PHOSPHORUS (Rattus norvegicus [1]; [3]): 12.48 mg/dL
POTASSIUM (Rattus norvegicus [1]; [3]): 6.05 MEQ/L
SODIUM (Rattus norvegicus [1]; [3]): 146.34 MEQ/L
TOTAL BILIRUBIN (Rattus norvegicus [1]; [3]): 0.3 mg/dL
TOTAL PROTEIN (Rattus norvegicus [1]; [3]): 6.3 G/DL
URIC ACID (Rattus norvegicus [1]; [3]): 1.32 mg/dL
ABSOLUTE EOSINOPHIL (Rattus norvegicus [2]; tissue Blood): 51.67 CELLS/uL
ABSOLUTE LYMPHOCYTE (Rattus norvegicus [2]; tissue Blood): 11963.33 CELLS/uL
ABSOLUTE MONOCYTE (Rattus norvegicus [2]; tissue Blood): 476.67 CELLS/uL
ABSOLUTE SEGMENTED NEUTROPHIL (Rattus norvegicus [2]; tissue Blood): 1508.33 CELLS/uL
BASOPHIL (Rattus norvegicus [2]; tissue Blood): 0%
EOSINOPHIL (Rattus norvegicus [2]; tissue Blood): 0.33%
ERYTHROCYTE COUNT (Rattus norvegicus [2]; tissue Blood): 5.85 x10E6/uL
HEMATOCRIT (Rattus norvegicus [2]; tissue Blood): 35.7%
HEMOGLOBIN (Rattus norvegicus [2]; tissue Blood): 12.97 G/DL
LEUKOCYTE COUNT (Rattus norvegicus [2]; tissue Blood): 14 x10E3/uL
LYMPHOCYTE (Rattus norvegicus [2]; tissue Blood): 85.67%
MEAN CORPUSCULAR HEMOGLOBIN (Rattus norvegicus [2]; tissue Blood): 22.17 pg
MEAN CORPUSCULAR HEMOGLOBIN CONCENTRATION (Rattus norvegicus [2]; tissue Blood): 36.3 G/DL
MEAN CORPUSCULAR VOLUME (Rattus norvegicus [2]; tissue Blood): 61.07 fL
MONOCYTE (Rattus norvegicus [2]; tissue Blood): 3.33%
NEUTROPHIL (Rattus norvegicus [2]; tissue Blood): 10.67%
NUCLEATED RED BLOOD CELLS (Rattus norvegicus [2]; tissue Blood): 0 /100WBC
PLATELET COUNT (Rattus norvegicus [2]; tissue Blood): 1137 x10E3/uL
ALANINE AMINOTRANSFERASE (Rattus norvegicus [2]; tissue Plasma): 71.67 u/L
ALBUMIN (Rattus norvegicus [2]; tissue Plasma): 4.2 G/DL
ALKALINE PHOSPHATASE (Rattus norvegicus [2]; tissue Plasma): 484 u/L
ASPARTATE AMINOTRANSFERASE (Rattus norvegicus [2]; tissue Plasma): 114 u/L
BLOOD UREA NITROGEN (Rattus norvegicus [2]; tissue Plasma): 15 mg/dL
CARBON DIOXIDE (Rattus norvegicus [2]; tissue Plasma): 23.33 mmol/L
CHLORIDE (Rattus norvegicus [2]; tissue Plasma): 101.33 MEQ/L
CHOLESTEROL (Rattus norvegicus [2]; tissue Plasma): 86.33 mg/dL
CREATININE (Rattus norvegicus [2]; tissue Plasma): 0.27 mg/dL
GLUCOSE (Rattus norvegicus [2]; tissue Plasma): 219 mg/dL
LACTATE DEHYDROGENASE (Rattus norvegicus [2]; tissue Plasma): 411.33 u/L
LIPASE (Rattus norvegicus [2]; tissue Plasma): 10 u/L
PHOSPHORUS (Rattus norvegicus [2]; tissue Plasma): 14.33 mg/dL
POTASSIUM (Rattus norvegicus [2]; tissue Plasma): 6.09 MEQ/L
SODIUM (Rattus norvegicus [2]; tissue Plasma): 142.83 MEQ/L
TOTAL BILIRUBIN (Rattus norvegicus [2]; tissue Plasma): 0.2 mg/dL
TOTAL PROTEIN (Rattus norvegicus [2]; tissue Plasma): 6.2 G/DL
URIC ACID (Rattus norvegicus [2]; tissue Plasma): 2.73 mg/dL
